Assay results: publication PMC12053052, “Comprehensive physicochemical, biophysical, and in vitro characterization of lung surfactant SP-A peptidomimetics” (Rsc Pharmaceutics, 2025)
Where “and” joins values, the source holds several entries; their conditions need not be identical. Equal entries are not always repeated. Entries after “also recorded” stand apart in the source; their conditions may differ. No end group written: not given here.

Legend:
[1] = not given; remark: listed apart in the source
[2] = In vitro solubility in pure solvents; format: physicochemical; conditions: excess solid, rotated 24 h at ambient room temperature, 0.2 μm filtered, HPLC-UV 220 nm, mean ± SD, N = 3; for solubility thermodynamic at 24 h: PBS, pH 7.4, aqueous buffer, thermodynamic from solid
Protocol: In vitro solubility measurements were conducted using conditions earlier reported.[13] Excess of peptide powder was added to known volume of pure solvent in a glass vial. The vial was allowed to rotate at ambient room temperature for 24 hours.[13] The test solution was filtered using 0.2 μm PTFE or PVDF membrane filters for organic and aqueous solvents respectively. The filtered solution was chemically analyzed by HPLC using conditions described in the HPLC section below.
(§1) High-performance liquid chromatography was used to quantify the peptides. The analysis was performed with a Shimadzu LC-2010AHT HPLC system (Kyoto, Japan), with autosampler fitted to a 20 μL sampling loop and dual wavelength UV-Vis detector and reverse phase C18 Phenomenex Prodigy™column (Torrance, CA) with 250 × 4.6 mm, 5 μm particle size. The mobile phase consisted of (A) 0.065% TFA in water and (B) 0.05% TFA in ACN at a flow rate of 1.0 mL min^−1. Analysis was performed using the following gradient elution method: 100% A to 100% B in 15 minutes, maintained at 100% B until 17.5 minutes. The percentage of A reached 100% in 19.5 minutes and maintained until 25 minutes. The column was maintained at 25 °C. The injection volume was 20 μL. The UV detector was set at 220 nm wavelength. The solvents used to dissolve 10-AA and 20-AA peptide analysis were PBS and pure water, respectively.

[3] = Octanol/water partition coefficient; format: physicochemical; conditions: shake-flask 1-octanol/water 50:50 v/v, 3 mg peptide in 3 mL, 37 °C, 24 h shaking + 24 h separation, HPLC-UV 220 nm, mean ± SD, N = 3
Protocol: Using similar conditions reported earlier,[14] octanol/water partition coefficient (P) measurements were conducted. A mass of 3 mg of peptide powder was added to 3 mL of 1-octanol (1.5 mL) and water (1.5 mL) to create a 50 : 50 v/v octanol : water ratio in a glass vial and allowed to shake in temperature-controlled water bath at 37 °C. After 24 hours, the shaker was stopped and the vial was undisturbed for 24 hours to allow the solvents to separate. An aliquot (20 μL) of water phase and octanol phase was injected into HPLC to quantify the peptide concentration in each phase.
as §1, with “The solvents used to dissolve 10-AA and 20-AA peptide analysis were PBS and pure water, respectively.” left out

[4] = system: A549 (human alveolar epithelial lung cells); test: In vitro cell viability, resazurin assay; format: cell-based; conditions: 0.1–1000 μM peptide, 72 h, relative to growth medium control, n = 6, ANOVA/Tukey p < 0.05
Source text: (§2) The cell viability of three different human pulmonary cell lines from different lung areas representing the conducting airways, the mid-lung and deep lung respiratory regions of the small airways. They are A549 (human alveolar epithelial lung cells), H358 (human bronchioalveolar epithelial cells) and NCI-H441 (human papillary lung adenocarcinoma cells), were studied using the Resazurin assay. Pulmonary cell lines A549 (ATCC® CCL-185™), H358 (ATCC® CRL-5807™) and NCI-H441 (ATCC® HTB-174™) were purchased from the American Type Culture Collection ATCC® (Manassas, VA). As previously reported,[16] A549 and H358 were grown in Dulbecco's modified eagle's medium (DMEM) Advanced 1× supplemented with 10% v/v fetal bovine serum (FBS), Pen-Strep (100 U mL^−1, 100 μg mL^−1), Fungizone® (0.5 μg mL^−1 amphotericin B, 0.41 μg mL^−1 sodium deoxycholate) and 2 mM L-glutamine obtained from Gibco® by Life Technologies (Thermo Fisher Scientific Inc., Waltham, MA). H441 cell line was grown in RPMI 1640 with L-glutamine Gibco® by Life Technologies (Thermo Fisher Scientific Inc., Waltham, MA).
(§3) The assay was conducted using similar previously reported conditions.[16] Briefly, in Nunc™ MicroWell™ 96-well optical-bottom plates with polymer base (ThermoScientific Waltham, MA) each cell line was seeded at a concentration of 5000 cells in 100 μL per well (six wells, n = 6) and allowed to attach for 48 hours. The cells were treated with 100 μL volume of different concentrations (0.1–1000 μM) of the peptides dissolved in the respective media. After 72 hours, the plate was treated with 20 μL of 10 μM resazurin solution. After 3–4 hours, the fluorescence intensity was read at 514 nm (excitation) and 590 nm (emission) wavelengths using the Synergy H1 Multi-Mode Reader (BioTek Instruments, Inc., Winooski, Vermont). The corresponding growth media was used as control for each cell line. Relative viability was calculated as a ratio of fluorescence intensity of the sample to the control. [drawing 1]

[5] = system: NCI-H441 (human papillary lung adenocarcinoma cells); test: In vitro cell viability, resazurin assay; format: cell-based; conditions: 0.1–1000 μM peptide, 72 h, relative to growth medium control, n = 6, ANOVA/Tukey p < 0.05
Source text: as §2, §3

[6] = system: H358 (human bronchioalveolar epithelial cells); test: In vitro cell viability, resazurin assay; format: cell-based; conditions: 0.1–1000 μM peptide, 72 h, relative to growth medium control, n = 6, ANOVA/Tukey p < 0.05
Source text: as §2, §3

Substance	Enthalpy (ΔH) of melting [1]	Solubility in MilliQ water ([2]; thermodynamic)	Solubility in absolute ethanol ([2]; thermodynamic)	Solubility in methanol ([2]; thermodynamic)	solubility thermodynamic at 24 h [2]	other results
H-KEQCVEMYTD-OH	3.08 J/g					Melting temperature (Tm), characteristic endothermic peak: 171 °C and 168 °C
H-PAGRGKEQCVEMYTDGQWND-OH	1.08 J/g					
KEQCVEMYTD [SP-A 10-AA AC]		420 ± 40 µg/mL	40 ± 10 µg/mL	10 ± 0.3 µg/mL		Solubility in PBS (pH 7.4) ([2]; thermodynamic): 1.16 ± 0.01 mg mL^−1; logP ([3]; read-out: Log P (octanol/water partition coefficient)): -1.07 ± 0.2
KEQCVEMYTD [SP-A 10-AA PS]		12200 ± 50 µg/mL	2060 ± 30 µg/mL	4250 ± 10 µg/mL	1810 ± 20 µg/mL	Log P (octanol/water partition coefficient) [3]: −1.79
PAGRGKEQCVEMYTDGQWND [SP-A 20-AA AC]			20 ± 20 µg/mL	20 ± 5 µg/mL		Relative cell viability, A549 [4]: significantly reduced cell viability at concentrations above 100 μM; Relative cell viability, H441 [5]: reduction in viability at higher concentrations; also recorded: significantly reduced cell viability at concentrations above 100 μM
PAGRGKEQCVEMYTDGQWND [SP-A 20-AA PS]			110 ± 50 µg/mL	1450 ± 20 µg/mL	470 ± 4 µg/mL	Relative cell viability, H358 [6]: decreased viability at higher concentrations; also recorded: statistically significant decrease in viability only with 20-AA PS at 1000 μM
